The nature of data set [1]: logD by shake flask method (octanol / PBS pH 7.4, HPLC). The format is physicochemical. Particulars: octanol / PBS pH 7.4, shake flask. The method, boiled down:
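LogD obtained by HPLC measurement of how the compound distributes between PBS (pH 7.4) and octanol in a shake-flask experiment.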

Data set [2] can be described thus: Caco-2 permeability assay (CacoReady kit). Particulars: human, Caco-2, Caco-2 barrier, CacoReady kit; above 1×10^−6 cm/s classified as permeable. The data set is classed as in vitro ADME. Summed up:
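Caco-2 monolayer barrier, commercial ready-to-use kit, manufacturer protocol. Read-out: Papp.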
(In general: Caco-2 monolayers are a common model of the intestinal barrier.)

For data set [3], the target named is T1, recombinant human transglutaminase 2 (Homo sapiens, UniProt P21980).
T1 construct: purchased Zedira T022
T1 sequence (P21980 1-687): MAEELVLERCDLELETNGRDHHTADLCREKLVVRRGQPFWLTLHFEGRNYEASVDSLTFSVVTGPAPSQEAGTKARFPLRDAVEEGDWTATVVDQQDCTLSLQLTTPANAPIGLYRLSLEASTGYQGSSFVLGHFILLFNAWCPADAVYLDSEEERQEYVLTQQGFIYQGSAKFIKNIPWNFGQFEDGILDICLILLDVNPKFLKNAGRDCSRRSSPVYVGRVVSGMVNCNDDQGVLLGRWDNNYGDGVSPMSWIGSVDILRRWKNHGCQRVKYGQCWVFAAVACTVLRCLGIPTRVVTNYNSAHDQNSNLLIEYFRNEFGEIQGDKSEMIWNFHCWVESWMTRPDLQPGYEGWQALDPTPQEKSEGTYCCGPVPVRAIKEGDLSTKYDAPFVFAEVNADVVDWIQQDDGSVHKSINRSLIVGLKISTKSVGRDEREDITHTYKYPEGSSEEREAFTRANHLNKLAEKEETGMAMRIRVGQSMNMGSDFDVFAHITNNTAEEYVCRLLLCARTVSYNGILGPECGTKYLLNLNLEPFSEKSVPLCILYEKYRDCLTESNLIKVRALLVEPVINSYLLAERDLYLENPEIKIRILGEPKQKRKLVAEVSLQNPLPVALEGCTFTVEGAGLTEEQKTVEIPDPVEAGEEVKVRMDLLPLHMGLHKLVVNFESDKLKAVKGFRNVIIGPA
The experiment in a line: Transglutaminase assay (DCC-assay): incorporation of dansylcadaverine into dimethylcasein. The format is biochemical. Particulars: recombinant human TG2 10 nM; dansylcadaverine incorporation into dimethylcasein; read-out: IC50 TG2. The method, boiled down: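 IC50 is the inhibitor level that blocks 50% of initial activity. Activity is the fluorescence slope (λex 330, λem 500 nm) between 20 and 30 min of a 37 °C run, relative to a 2% DMSO control. The enzyme is recombinant human tissue transglutaminase, 10 nM final, tested against a 1:2 inhibitor dilution series in a pH 8.0 mix with 10 mM CaCl2, 10 mM glutathione, 16.7 µM dansylcadaverine and 4 µM N,N-dimethylcasein.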

Molecules are shown by their SMILES. A value given as a limit tells only on which side of the number the result lay.

A word on the logD: it is lipophilicity at a set pH, counting ionised and neutral species. The low end stands for a more hydrophilic compound, the high end for a more lipophilic compound. One may read the Papp as a coefficient for how fast a substance crosses the barrier. A lower Papp goes with slow passage. As usually defined, the IC50 is the concentration that gives 50% inhibition.

The compound `CNC(=O)C(=O)CC[C@H](NC(=O)[C@@H]1CCCN1C)C(=O)Nc1cccn(CC(=O)NC2C3CC4CC(C3)CC2C4)c1=O` (stereo partly drawn) [II-54, (S)-N1-(1-(2-(2-adamantylamino)-2-oxoethyl)-2-oxo-1,2-dihydropyridin-3-yl)-N6-methyl-2-((S)-1-methylpyrrolidine-2-carboxamido)-5-oxohexanediamide] yielded a pH-dependent lipophilicity (logD) in data set [1] of 1 to 3. Moreover, the Papp in data set [2] is under 1 ×10⁻⁶ cm/s. The concentration for half-maximal inhibition (IC50) in data set [3] was in the range of 40 to 400 nM.
Consider `CNC(=O)C(=O)CC[C@H](NC(=O)[C@H]1CCNC1)C(=O)Nc1cccn(CC(=O)NC2C3CC4CC(C3)CC2C4)c1=O` (stereo partly drawn) [II-55, (S)-N1-(1-(2-(2-adamantylamino)-2-oxoethyl)-2-oxo-1,2-dihydropyridin-3-yl)-N6-methyl-5-oxo-2-((S)-pyrrolidine-3-carboxamido)hexanediamide], for which the log distribution coefficient (logD) in data set [1] is under 1. In addition, the apparent permeability coefficient (Papp) in data set [2] was under 1 ×10⁻⁶ cm/s. Also, the half-maximal inhibitory concentration (IC50) in data set [3] was 40 to 400 nM.
The matching figures for `CNC(=O)C(=O)CC[C@H](NC(=O)[C@@H]1C[C@H](Br)CN1)C(=O)Nc1cccn(CC(=O)NC2C3CC4CC(C3)CC2C4)c1=O` (stereo partly drawn) [II-56, (S)-2-((2S,4S)-4-bromopyrrolidine-2-carboxamido)-N1-(1-(2-(2-adamantylamino)-2-oxoethyl)-2-oxo-1,2-dihydropyridin-3-yl)-N6-methyl-5-oxohexanediamide]: 1 to 3, under 1 ×10⁻⁶ cm/s and 40 to 400 nM.
Compound `CNC(=O)C(=O)CC[C@H](NC(=O)[C@@H]1CCCCN1)C(=O)Nc1cccn(CC(=O)NC2C3CC4CC(C3)CC2C4)c1=O` (stereo partly drawn) [II-58, (S)-N1-(1-(2-(2-adamantylamino)-2-oxoethyl)-2-oxo-1,2-dihydropyridin-3-yl)-N6-methyl-5-oxo-2-((S)-piperidine-2-carboxamido)hexanediamide] showed a log distribution coefficient (logD) in data set [1] of 1 to 3. The same compound gave an apparent permeability (Papp) in data set [2] of under 1 ×10⁻⁶ cm/s. In data set [3], the half-maximal inhibitory concentration (IC50) is 40 to 400 nM.
Regarding `CNC(=O)C(=O)CC[C@H](NC(=O)[C@@H]1CCCNC1)C(=O)Nc1cccn(CC(=O)NC2C3CC4CC(C3)CC2C4)c1=O` (stereo partly drawn) [II-59, (S)-N1-(1-(2-(2-adamantylamino)-2-oxoethyl)-2-oxo-1,2-dihydropyridin-3-yl)-N6-methyl-5-oxo-2-((R)-piperidine-3-carboxamido)hexanediamide], the logD in data set [1] lay in the range of 1 to 3. For the same compound, in data set [2], the apparent permeability coefficient (Papp) was under 1 ×10⁻⁶ cm/s. In addition, the half-inhibitory concentration (IC50) in data set [3] lay within 40 to 400 nM.
The compound `CNC(=O)C(=O)CC[C@H](NC(=O)[C@H]1COCCN1)C(=O)Nc1cccn(CC(=O)NC2C3CC4CC(C3)CC2C4)c1=O` (stereo partly drawn) [II-60, (S)-N1-(1-(2-(2-adamantylamino)-2-oxoethyl)-2-oxo-1,2-dihydropyridin-3-yl)-N6-methyl-2-((R)-morpholine-3-carboxamido)-5-oxohexanediamide] came in with a logD in data set [1] of under 1. Also, the apparent permeability (Papp) in data set [2] is under 1 ×10⁻⁶ cm/s. The IC50 in data set [3] was in the range of 40 to 400 nM.
On to `CNC(=O)C(=O)CC[C@H](NC(=O)C1CN2CCC1CC2)C(=O)Nc1cccn(CC(=O)NC2C3CC4CC(C3)CC2C4)c1=O` (stereo partly drawn) [II-61, (S)-N1-(1-(2-(2-adamantylamino)-2-oxoethyl)-2-oxo-1,2-dihydropyridin-3-yl)-N6-methyl-5-oxo-2-(quinuclidine-3-carboxamido)hexanediamide], for which the logD in data set [1] lay in the range of 1 to 3. The same compound yielded a Papp in data set [2] of under 1 ×10⁻⁶ cm/s. Further, the half-maximal inhibitory concentration (IC50) in data set [3] lay in the range of 40 to 400 nM.
The matching figures for `CNC(=O)C(=O)CC[C@H](NC(=O)c1cc(C(=O)OC)cc([N+](=O)[O-])c1)C(=O)Nc1cccn(CC(=O)NC2C3CC4CC(C3)CC2C4)c1=O` (stereo partly drawn) [II-62, (S)-methyl 3-(1-(1-(2-(2-adamantylamino)-2-oxoethyl)-2-oxo-1,2-dihydropyridin-3-ylamino)-6-(methylamino)-1,5,6-trioxohexan-2-ylcarbamoyl)-5-nitrobenzoate]: 1 to 3, 1 to 10 ×10⁻⁶ cm/s and under 40 nM.
`CNC(=O)C(=O)CC[C@H](NC(=O)c1cncc([N+](=O)[O-])c1)C(=O)Nc1cccn(CC(=O)NC2C3CC4CC(C3)CC2C4)c1=O` (stereo partly drawn) [II-63, (S)-N1-(1-(2-(2-adamantylamino)-2-oxoethyl)-2-oxo-1,2-dihydropyridin-3-yl)-N6-methyl-2-(5-nitronicotinamido)-5-oxohexanediamide] displayed a logD in data set [1] of 1 to 3. For the same compound, the Papp in data set [2] is under 1 ×10⁻⁶ cm/s. The 50% inhibitory concentration (IC50) in data set [3] was under 40 nM.
In data set [1], `CNC(=O)C(=O)CC[C@H](NC(=O)c1cncc(C(=O)O)c1)C(=O)Nc1cccn(CC(=O)NC2C3CC4CC(C3)CC2C4)c1=O` (stereo partly drawn) [II-64, (S)-5-(1-(1-(2-(2-adamantylamino)-2-oxoethyl)-2-oxo-1,2-dihydropyridin-3-ylamino)-6-(methylamino)-1,5,6-trioxohexan-2-ylcarbamoyl)nicotinic acid] displayed a pH-dependent lipophilicity (logD) of 1 to 3. The compound further had an apparent permeability coefficient (Papp) in data set [2] of under 1 ×10⁻⁶ cm/s. In data set [3], the IC50 was in the range of 40 to 400 nM.
Regarding `CNC(=O)C(=O)CC[C@H](NC(=O)c1cncc(C(=O)OC)c1)C(=O)Nc1cccn(CC(=O)NC2C3CC4CC(C3)CC2C4)c1=O` (stereo partly drawn) [II-65, (S)-methyl 5-(1-(1-(2-(2-adamantylamino)-2-oxoethyl)-2-oxo-1,2-dihydropyridin-3-ylamino)-6-(methylamino)-1,5,6-trioxohexan-2-ylcarbamoyl)nicotinate], in data set [1], the log distribution coefficient (logD) was in the range of 1 to 3. The Papp in data set [2] was under 1 ×10⁻⁶ cm/s. The half-maximal inhibitory concentration (IC50) in data set [3] was 40 to 400 nM.
Take `CNC(=O)C(=O)CC[C@H](NC(=O)c1c(C)nc2sccn12)C(=O)Nc1cccn(CC(=O)NC2C3CC4CC(C3)CC2C4)c1=O` (stereo partly drawn) [II-66, (S)-N1-(1-(2-(2-adamantylamino)-2-oxoethyl)-2-oxo-1,2-dihydropyridin-3-yl)-N6-methyl-2-(6-methylimidazo[2,1-b]thiazole-5-carboxamido)-5-oxohexanediamide]: the logD in data set [1] lay in the range of 1 to 3. The Papp in data set [2] was under 1 ×10⁻⁶ cm/s. The half-inhibitory concentration (IC50) in data set [3] lay within 400 to 2500 nM.
In data set [1], `CNC(=O)C(=O)CC[C@H](NC(=O)c1oc2ccccc2c1C)C(=O)Nc1cccn(CC(=O)N(C)C2C3CC4CC(C3)CC2C4)c1=O` (stereo partly drawn) [II-67, (S)-N1-(1-(2-(2-adamantyl(methyl)amino)-2-oxoethyl)-2-oxo-1,2-dihydropyridin-3-yl)-N6-methyl-2-(3-methylbenzofuran-2-carboxamido)-5-oxohexanediamide] gave a pH-dependent lipophilicity (logD) of 3 to 5. For the same compound, in data set [2], the Papp fell in the range of 1 to 10 ×10⁻⁶ cm/s. Further, in data set [3], the IC50 fell in the range of 400 to 2500 nM.
The matching figures for `CNC(=O)C(=O)CC[C@H](NC(=O)c1oc2ccccc2c1C)C(=O)Nc1cccn(CC(=O)NC2C3CC4CC2CC(O)(C4)C3)c1=O` (stereo partly drawn) [II-68, (S)-N1-(1-(2-(5-hydroxyadamantane-2-amino)-2-oxoethyl)-2-oxo-1,2-dihydropyridin-3-yl)-N6-methyl-2-(3-methylbenzofuran-2-carboxamido)-5-oxohexanediamide]: under 1, under 1 ×10⁻⁶ cm/s and 40 to 400 nM.
In turn, `CNC(=O)C(=O)CC[C@H](NC(=O)c1oc2ccccc2c1C)C(=O)Nc1cccn(CC(=O)NC2C3CC4CC2CC(F)(C4)C3)c1=O` (stereo partly drawn) [II-69, (S)-N1-(1-(2-(5-fluoroadamantane-2-amino)-2-oxoethyl)-2-oxo-1,2-dihydropyridin-3-yl)-N6-methyl-2-(3-methylbenzofuran-2-carboxamido)-5-oxohexanediamide] yielded a pH-dependent lipophilicity (logD) in data set [1] of 1 to 3. The Papp in data set [2] fell in the range of 1 to 10 ×10⁻⁶ cm/s. Besides, the IC50 in data set [3] was under 40 nM.

The values above are taken from US20240383856A1 (Zedira GmbH, priority 2021, published 2024).
